Measured values from US20060025566A1, “Macrocyclic modulators of the ghrelin receptor” (Tranzyme Pharma Inc., priority 2003, published 2006).
Like-named read-outs stand apart in the source and are kept apart here.

Molecular target: T1, human growth hormone secretagogue receptor (hGHS-R1a) (Homo sapiens, UniProt Q92847)
T1 construct: purchased PerkinElmer BioSignal #RBHGHSM, lot#1887; host or cells: HEK-293, stably transfected (membranes)
Experiment: Competitive radioligand binding assay (ghrelin receptor), [125I]-ghrelin displacement on GHS-R/HEK 293 membranes
Method: The competitive binding assay at the human growth hormone secretagogue receptor (hGHS-R1a) was carried out analogously to assays described in the literature.
Multiscreen Harvest plates-GF/C (Millipore, #MAHFC 1H60) • 4. […] Bottom seal (Millipore, #MATAH0P00) • 7. […] Binding Buffer: 25 mM Hepes (pH 7.4), 1 mM CaCl2, 5 mM MgCl2, 2.5 mM EDTA, 0.4% BSA Assay Volumes
Competition experiments were performed in a 300 μl filtration assay format. • 1. 220 μL of membranes diluted in binding buffer • 2. 40 μL of compound diluted in binding buffer • 3. […] Compound Handling
Compounds were provided frozen on dry ice at a stock concentration of 10 mM diluted in 100% DMSO and stored at −80° C. until the day of testing. On the test day, compounds were allowed to thaw at rt O/N and then diluted in assay buffer according to the desired test concentrations.
Plates were sealed with TopSeal-A, vortexed gently and incubated at rt for 30 min. The reaction was arrested by filtering samples through Multiscreen Harvest plates (pre-soaked in 0.5% polyethyleneimine) using a Tomtec Harvester, washed 9 times with 500 μL of cold 50 mM Tris-HCl (pH 7.4, 4° C.), and then plates were air-dried in a fumehood for 30 min. A bottom seal was applied to the plates prior to the addition of 25 μL of MicroScint-0 to each well. […] Results were expressed as counts per minute (cpm).
Data were analyzed by GraphPad Prism (GraphPad Software, San Diego, Calif.) using a variable slope non-linear regression analysis.
• 1. […] Key Aspects of Method • 1. […] Results

[1] = Table 3E, human ghrelin receptor, read-out: Ki
[2] = binding activity at the human ghrelin receptor, [125I]-ghrelin competition, GHS-R/HEK 293 membranes, read-out: Ki
[3] = [125I]-ghrelin competition, GHS-R/HEK 293 membranes, Table 3A, read-out: Binding Activity at the Human Ghrelin Receptor
[4] = second table titled 3C (compounds 435-449), human ghrelin receptor, read-out: Ki
[5] = binding activity at the human ghrelin receptor, [125I]-ghrelin displacement, read-out: Ki
[6] = Table 3C (compounds 18, 334-397), human ghrelin receptor, read-out: Ki

T1 sequence (Q92847 whole entry): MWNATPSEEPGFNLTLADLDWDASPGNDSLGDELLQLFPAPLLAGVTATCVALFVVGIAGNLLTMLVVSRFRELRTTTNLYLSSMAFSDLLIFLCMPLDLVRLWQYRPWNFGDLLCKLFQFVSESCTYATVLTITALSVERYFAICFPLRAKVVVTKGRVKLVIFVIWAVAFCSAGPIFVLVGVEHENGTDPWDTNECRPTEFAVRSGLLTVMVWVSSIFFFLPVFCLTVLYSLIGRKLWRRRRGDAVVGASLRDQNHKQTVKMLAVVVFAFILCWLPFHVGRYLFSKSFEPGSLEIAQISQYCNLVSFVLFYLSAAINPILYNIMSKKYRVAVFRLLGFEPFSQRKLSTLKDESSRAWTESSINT

Compound: CCC[C@@H]1NCCOc2ccccc2CCCNC(=O)[C@@H](Cc2ccccc2)NC(=O)[C@@H]2CCCN2C1=O
- Ki [1]: 1000 to 10000 nM

Compound: CCC[C@@H]1NCCOc2ccccc2CCCNC(=O)[C@@H](Cc2ccccc2)NC(=O)[C@H]2CCCN2C1=O
- Ki [1]: 100 to 1000 nM

Compound: CCC[C@@H]1NCCOc2ccccc2CCCNC(=O)[C@H](Cc2ccccc2)NC(=O)[C@@H]2CCCN2C1=O
- Ki [1]: 1000 to 10000 nM

Compound: CCC[C@@H]1NCCOc2ccccc2CCCNC(=O)[C@H](Cc2ccccc2)NC(=O)[C@H]2CCCN2C1=O
- Ki [1]: 1000 to 10000 nM

Compound: CCC(C)[C@@H]1NCCOc2ccccc2CCCNC(=O)[C@@H](Cc2ccccc2)NC(=O)[C@H]2C[C@H](O)CN2C1=O (some centres unmarked)
- Ki [1]: > 10000 nM

Compound: C[C@@H]1C(=O)N[C@H](Cc2ccccc2)C(=O)NCCCc2ccccc2OCCN2CCC[C@H]2C(=O)N1C
- Ki [1]: 100 to 1000 nM

Compound: CCC(C)[C@@H]1NCCOc2ccccc2CCCNC(=O)[C@@H](Cc2ccccc2)N2CC[C@@H](NC1=O)C2=O (some centres unmarked)
- Ki [1]: 100 to 1000 nM

Compound: CCC(C)[C@@H]1NCCOc2ccccc2CCCNC(=O)[C@@H](Cc2ccccc2)N2CC[C@H](NC1=O)C2=O (some centres unmarked)
- Ki [1]: > 10000 nM

Compound: CCC(C)[C@@H]1NCCOc2ccccc2CCCNC(=O)[C@@H](Cc2ccccc2)N2CC[C@H](C2=O)N(C)C1=O (some centres unmarked)
- Ki [1]: 10 to 100 nM

Compound: CCC(C)[C@@H]1NCCOc2ccccc2CCCNC(=O)[C@@H](Cc2ccccc2)N2CC[C@@H](C2=O)N(C)C1=O (some centres unmarked)
- Ki [1]: 100 to 1000 nM

Compound: CCC1NCCOc2ccccc2C=CCNC(=O)C(Cc2ccccc2)NC(=O)C2(CCCC2)NC1=O (single isomer, unassigned) [136a]
- Ki [2]: 10 to 100 nM

Compound: CCC1NCCOc2ccccc2/C=C/CNC(=O)C(Cc2ccccc2)NC(=O)C2(CCCC2)NC1=O (single isomer, unassigned) [136b]
- Ki [2]: 100 to 1000 nM

Compound: CCC(C)C1NCCOc2ccccc2CCCNC(=O)C(Cc2ccccc2)NC(=O)C(C(C)C)N(C)C1=O (single isomer, unassigned) [145a]
- Ki [2]: 100 to 1000 nM

Compound: CCC(C)C1NCCOc2ccccc2CCCNC(=O)C(Cc2ccccc2)NC(=O)C(C(C)C)N(C)C1=O (single isomer, unassigned) [145b]
- Ki [2]: > 1000 nM

Compound: CCC(C)C1NCCc2ccccc2CCCCNC(=O)C(Cc2ccccc2)NC(=O)C(C)N(C)C1=O (single isomer, unassigned) [189a]
- Ki [3]: 100 to 1000 nM

Compound: CCC(C)C1NCCOc2ccccc2/C=C/CNC(=O)C(CO)NC(=O)C2(CCCC2)NC1=O (single isomer, unassigned) [442a]
- Ki [4]: > 10000 nM

Compound: CCC(C)C1NCCOc2ccccc2/C=C/CNC(=O)C(COC)NC(=O)C2(CCCC2)NC1=O (single isomer, unassigned) [443a]
- Ki [4]: > 10000 nM

Compound: CC(C)CC1NCCOc2ccccc2/C=C/CNC(=O)C(Cc2c[nH]cn2)NC(=O)C2(CCCC2)NC1=O (single isomer, unassigned) [444a]
- Ki [4]: > 10000 nM

Compound: CC1C(=O)NC(Cc2ccc(F)cc2)C(=O)NCCOCCOCCNC(C2CC2)C(=O)N1C (single isomer, unassigned) [446a]
- Ki [4]: 1000 to 10000 nM

Compound: CC(C)CC1NCCOc2ccccc2C=CCNC(=O)C(Cc2ccccn2)NC(=O)C2(CCCC2)NC1=O (stereo in doubt) [160a]
- Ki [3]: > 1000 nM

Compound: CCC[C@@H]1NC(=O)[C@@H](C(C)C)NCCOc2ccccc2C=CCNC(=O)[C@H](Cc2ccccc2)NC1=O (stereo in doubt) [compound 13]
- Ki [2]: 100 to 1000 nM

Compound: CC[C@H](C)[C@@H]1NCCOc2ccccc2C=CCNC(=O)[C@H](Cc2ccccc2)NC(=O)[C@@H](C)NC1=O (stereo in doubt) [compound 14]
- Ki [2]: 100 to 1000 nM

Compound: CC(C)C[C@@H]1NCCOc2ccccc2C=CCNC(=O)[C@H](CCC(=O)O)NC(=O)C2(CCCC2)NC1=O (stereo in doubt) [compound 45]
- Ki [2]: > 10000 nM

Compound: CC(C)C[C@@H]1NCCOc2ccccc2C=CCNC(=O)[C@H](C(C)C)NC(=O)C2(CCCC2)NC1=O (stereo in doubt) [compound 46]
- Ki [2]: > 10000 nM

Compound: O=C1NC2(CCCC2)C(=O)N[C@@H](Cc2ccccc2)C(=O)NCC=Cc2ccccc2OCCN[C@H]1Cc1ccccc1Cl (stereo in doubt) [compound 122]
- Ki [2]: 100 to 1000 nM

Compound: O=C1NC2(CCCC2)C(=O)N[C@@H](Cc2ccccc2)C(=O)NCC=Cc2ccccc2OCCN[C@H]1Cc1cccc(Cl)c1 (stereo in doubt) [compound 123]
- Ki [2]: 100 to 1000 nM

Compound: O=C1NC2(CCCC2)C(=O)N[C@@H](Cc2ccccc2)C(=O)NCC=Cc2ccccc2OCCN[C@H]1Cc1ccc(Cl)cc1 (stereo in doubt) [compound 124]
- Ki [2]: 1000 to 10000 nM

Compound: O=C1NC2(CCCC2)C(=O)N[C@@H](Cc2ccccc2)C(=O)NCC=Cc2ccccc2OCCN[C@H]1CCc1ccccc1 (stereo in doubt) [compound 126]
- Ki [2]: 100 to 1000 nM

Compound: O=C1NC2(CCCC2)C(=O)N[C@@H](Cc2ccccc2)C(=O)NCC=Cc2ccccc2OCCN[C@H]1Cc1ccc(-c2ccccc2)cc1 (stereo in doubt) [compound 128]
- Ki [2]: > 10000 nM

Compound: O=C1NC2(CCCC2)C(=O)N[C@@H](Cc2ccccc2)C(=O)NCC=Cc2ccccc2OCCN[C@H]1Cc1ccncc1 (stereo in doubt) [compound 133]
- Ki [2]: > 1000 nM

Compound: O=C1NC2(CCCC2)C(=O)NC(Cc2ccccc2)C(=O)NCC=Cc2ccccc2OCCNC1Cc1cccs1 (stereo in doubt) [compound 135]
- Ki [2]: 100 to 1000 nM

Compound: CC[C@H](C)[C@@H]1NCCOc2ccccc2C=CCNC(=O)[C@H](Cc2ccccc2)NC(=O)C2(CCCC2)NC1=O (stereo in doubt) [compound 138]
- Ki [2]: 10 to 100 nM

Compound: CC(C)[C@@H]1NCCOc2ccccc2C=CCNC(=O)[C@H](Cc2ccccc2)NC(=O)C2(CCCCC2)NC1=O (stereo in doubt) [compound 139]
- Ki [2]: 100 to 1000 nM

Compound: CC(C)C1NCCOc2ccccc2C=CCNC(=O)C(Cc2ccccc2)NC(=O)C2(CCSCC2)NC1=O (stereo in doubt) [compound 143]
- Ki [2]: 100 to 1000 nM

Compound: CC(C)C[C@@H]1NCCOc2ccccc2C=CCNC(=O)[C@H](CCc2ccccc2)NC(=O)C2(CCCC2)NC1=O (stereo in doubt) [compound 155]
- Ki [2]: > 500 nM

Compound: CC(C)C[C@@H]1NCCOc2ccccc2C=CCNC(=O)[C@H](Cc2ccc(-c3ccccc3)cc2)NC(=O)C2(CCCC2)NC1=O (stereo in doubt) [compound 157]
- Ki [3]: 100 to 1000 nM

Compound: CC(C)C[C@@H]1NCCOc2ccccc2C=CCNC(=O)[C@H](Cc2ccc3ccccc3c2)NC(=O)C2(CCCC2)NC1=O (stereo in doubt) [compound 159]
- Ki [3]: 10 to 100 nM

Compound: CC(C)C[C@@H]1NCCOc2ccccc2C=CCNC(=O)[C@H](Cc2cccs2)NC(=O)C2(CCCC2)NC1=O (stereo in doubt) [compound 164]
- Ki [3]: 100 to 1000 nM

Compound: CC[C@@H]1NC(=O)C2(CCCC2)NC(=O)[C@H](CC(C)C)NCCOc2ccccc2C=CCNC1=O (stereo in doubt) [compound 165]
- Ki [3]: > 10000 nM

Compound: CC(C)[C@@H]1NCCOc2ccccc2C=CCNC(=O)[C@H](Cc2ccccc2)NC(=O)C2(CC2)NC1=O (stereo in doubt) [compound 199]
- Ki [3]: 100 to 1000 nM

Compound: CC(C)C[C@H]1C(=O)NC2(CCCC2)C(=O)N[C@@H](Cc2ccccc2)C(=O)NCC=Cc2ccccc2OCCN1C (stereo in doubt) [compound 203]
- Ki [3]: 1000 to 10000 nM

Compound: CC(C)C1NCCOc2ccccc2C=CCNC(=O)C(Cc2ccccc2)NC(=O)C2(CCNCC2)NC1=O (stereo in doubt) [compound 211]
- Ki [3]: > 1000 nM

Compound: C[C@@H]1C(=O)N[C@H](Cc2ccc(Cl)cc2)C(=O)NCC=Cc2ccccc2OCCN[C@@H](C2CC2)C(=O)N1C (stereo in doubt) [compound 308]
- Ki [5]: 0.1 to 10 nM

Compound: CC1(C)NCCOc2ccccc2C=CCNC(=O)[C@H](Cc2cccc(Cl)c2)NC(=O)C2(CCCC2)NC1=O (stereo in doubt) [compound 349]
- Ki [6]: 10 to 100 nM

Compound: CC1(C)NCCOc2ccccc2C=CCNC(=O)[C@H](Cc2cccc(Cl)c2)NC(=O)C(C)(C)NC1=O (stereo in doubt) [compound 350]
- Ki [6]: 100 to 1000 nM

Compound: C[C@@H]1NC(=O)C2(CCCC2)NCCOc2ccccc2C=CCNC(=O)[C@H](Cc2cccc(Cl)c2)NC1=O (stereo in doubt) [compound 352]
- Ki [6]: 100 to 1000 nM

Compound: CC[C@H](C)[C@@H]1NCCOc2ccccc2CCCNC(=O)C(Cc2cccc(Cl)c2)NC(=O)C2(CCCC2)NC1=O (stereo in doubt) [compound 369]
- Ki [5]: 10 to 100 nM

Compound: CCC(C)C1NCCOc2ccccc2CCCNC(=O)C(Cc2ccccc2)NC(=O)C(C(C)CC)N(C)C1=O (centres unmarked) [150a]
- Ki [2]: 100 to 1000 nM

Compound: CCC(C)C1NCCOc2ccccc2CCCNC(=O)C(Cc2ccccc2)N2CCC(C2=O)N(C)C1=O (stereo not drawn) [230 diastereomer]
- Ki [1]: 1000 to 10000 nM

Compound: CCC(C)C1NCCOc2ccccc2CCCNC(=O)C(Cc2ccccn2)NC(=O)C(C)N(C)C1=O (centres unmarked) [compound 32]
- Ki [2]: 10 to 100 nM

Compound: CCC(C)C1NCCOc2ccccc2CCCNC(=O)C(Cc2ccccc2)NC(=O)C(CC)N(C)C1=O (centres unmarked) [compound 41]
- Ki [2]: 10 to 100 nM

Compound: CC(C)CC1NCCOc2ccccc2C=CCNC(=O)C(CC(C)C)NC(=O)C2(CCCC2)NC1=O (centres unmarked) [compound 47]
- Ki [2]: > 10000 nM

Compound: CCC[C@@H]1NCCOc2ccccc2CCCNC(=O)[C@@H](C)NC(=O)CN(C)C1=O [compound 49]
- Ki [2]: > 10000 nM
